Broadly, the IC50 is the concentration that gives 50% inhibition. High values mean a need for much substance, low ones inhibition by little substance.

The values that follow come from ChEMBL document CHEMBL1136691, “Identification of novel and potent isoquinoline aminooxazole-based IMPDH inhibitors” (Bioorg Med Chem Lett, 2003).

This experiment deals with Inosine-5'-monophosphate dehydrogenase 2 (Homo sapiens, UniProt P12268). Kind of experiment: Inhibitory activity against inosine […] monophosphate dehydrogenase type II (IMPDH II).
The compound `CC(=O)Nc1ccc2cnccc2c1Br` yielded an IC50 of over 5000 nM. `O=C(Nc1ccccc1)Nc1ccc2ccncc2c1` gave an IC50 of over 5000 nM.

In the case of `O=C(NCc1ccccc1)Nc1ccc2cnccc2c1`, the IC50 came out at 400 nM.

Compound `CC(=O)Nc1ccc2cnccc2c1Cl` gave an IC50 of over 5000 nM. Under `CCCc1c(N)ccc2cnccc12` stands over 5000 nM; under `O=C(Nc1ccccc1)Nc1ccc2cnccc2c1Br`, 740 nM; under `Cc1ccccc1NC(=O)Nc1ccc2cnccc2c1`, 3800 nM. Then `Cc1cccc(NC(=O)Nc2ccc3cncnc3c2)c1`, with 150 nM; and `c1ccc(-c2cnc(Nc3ccc4cncnc4c3)o2)cc1`, with 60 nM; and `C=CCc1c(N)ccc2cnccc12`, with 3000 nM.

As to `CC(=O)Nc1ccc2cnccc2c1`, the IC50 was over 5000 nM. In the case of `Nc1ccc2cnccc2c1N`, the IC50 is over 5000 nM.

Compound `C=Cc1c(N)ccc2cnccc12` displayed an IC50 of 820 nM. Then `Cc1c(N)ccc2cnccc12`, with over 5000 nM.

In the case of `Cc1ccc(NC(=O)Nc2ccc3cnccc3c2)cc1`, the IC50 came to 247 nM. Then `Nc1ccc2cnccc2c1Cl`, with 1200 nM; and `Cc1cccc(NC(=O)Nc2ccc3cnncc3c2)c1`, with over 5000 nM.

Turning to `Cc1cccc(NC(=O)Nc2ccc3cnccc3c2)c1`, the IC50 stood at 18 nM.

For the compound `Cc1cccc(NC(=O)Nc2ccc3nnccc3c2)c1`, the IC50 was over 1700 nM. Then `c1ccc(-c2cnc(Nc3ccc4cnccc4c3)o2)cc1`, with 5 nM. Then `O=C(Nc1ccccc1)Nc1ccc2cnccc2c1Cl`, with 1660 nM. The compound `Nc1ccc2cnccc2c1` came in with an IC50 of over 5000 nM.

Compound `O=C(Nc1ccccc1)Nc1ccc2cnccc2c1` registered an IC50 of 740 nM. Then `Nc1ccc2cnccc2c1Br`, with 550 nM. In turn, `COc1ccc2cnccc2c1Br` yielded an IC50 of over 5000 nM.
